Assay results as given in patent US11357779B2 (G1 Therapeutics, Inc., priority 2018, dated 2022).
Read-outs that look alike come from different tables or passages of the source.

Assay: Noncompartmental pharmacokinetic parameters (Cmax, Tmax, AUC, Racc) in QD and BID cohorts of Form B
Type: in vivo, human
Conditions: human, plasma, oral
Description: Analysis of plasma concentration versus time data for calculation of standard pharmacokinetic (PK) parameters following oral administration was conducted using Phoenix WinNonlin version 6.3 using actual blood sampling times.
The following pharmacokinetic parameters were calculated from the concentration versus time data obtained in Example 1 for each of the above QD (200 mg, 300 mg, 400 mg, 500 mg, or 650 mg dosed) and BID (100 mg, 150 mg, or 200 mg doses) Form B of Compound II dosage cohorts: • Cmax—the observed peak plasma concentration determined from the plasma concentration versus time data obtained on Day 1 and Day 29, as applicable; • Tmax—the time to reach the observed peak plasma concentration from the plasma concentration versus time data obtained on Day 1 and Day 29, as applicable; • AUC—area under the plasma concentration versus time curve during a dosing interval on Day 1 and Day 29, as applicable; and • Racc—accumulation ratio calculated as AUCDay 29/AUCDay 1.

CC(C)N1CCN(c2ccc(Nc3ncc4cc5n(c4n3)C3(CCCCC3)CNC5=O)nc2)CC1 [Compound I, 2′-((5-(4-isopropylpiperazin-1-yl)pyridin-2-yl)amino)-7′,8′-dihydro-6′H-spiro[cyclohexane-1,9′-pyrazino[1′,2′:1,5]pyrrolo[2,3-d]pyrimidin]-6′-one]
AUC(0-t) (100 mg, Cohort 6, 100 mg BID of Form B, Day 1, read-out: AUClast, Mean): 59.7 ng·h/mL
AUC(0-t) (100 mg, Cohort 6, 100 mg BID of Form B, Day 1, read-out: AUClast, Median): 53.1 ng·h/mL
Cmax (100 mg, Cohort 6, 100 mg BID of Form B, Day 1, read-out: Cmax, Mean): 10.2 ng/mL
Cmax (100 mg, Cohort 6, 100 mg BID of Form B, Day 1, read-out: Cmax, Median): 8.95 ng/mL
Tmax (100 mg, Cohort 6, 100 mg BID of Form B, Day 1, read-out: Tmax, Mean): 3.17 h
Tmax (100 mg, Cohort 6, 100 mg BID of Form B, Day 1, read-out: Tmax, Median): 3 h
AUC(0-t) (100 mg, Compound I, 100 mg BID of Form B, Cohort 6, Day 29, read-out: AUClast (Mean)): 101 ng·h/mL
AUC(0-t) (100 mg, Compound I, 100 mg BID of Form B, Cohort 6, Day 29, read-out: AUClast (Median)): 88.2 ng·h/mL
Cmax (100 mg, Compound I, 100 mg BID of Form B, Cohort 6, Day 29, read-out: Cmax (Mean)): 12.3 ng/mL
Cmax (100 mg, Compound I, 100 mg BID of Form B, Cohort 6, Day 29, read-out: Cmax (Median)): 11.8 ng/mL
Tmax (100 mg, Compound I, 100 mg BID of Form B, Cohort 6, Day 29, read-out: Tmax (Mean)): 4.4 h
Tmax (100 mg, Compound I, 100 mg BID of Form B, Cohort 6, Day 29, read-out: Tmax (Median)): 3 h
AUC(0-t) (150 mg, Compound I, 150 mg BID of Form B, Cohort 7, Day 1, read-out: AUClast (Mean)): 130 ng·h/mL
AUC(0-t) (150 mg, Compound I, 150 mg BID of Form B, Cohort 7, Day 1, read-out: AUClast (Median)): 141 ng·h/mL
Cmax (150 mg, Compound I, 150 mg BID of Form B, Cohort 7, Day 1, read-out: Cmax (Mean)): 21.7 ng/mL
Cmax (150 mg, Compound I, 150 mg BID of Form B, Cohort 7, Day 1, read-out: Cmax (Median)): 24.6 ng/mL
Tmax (150 mg, Compound I, 150 mg BID of Form B, Cohort 7, Day 1, read-out: Tmax (Mean)): 3.67 h
Tmax (150 mg, Compound I, 150 mg BID of Form B, Cohort 7, Day 1, read-out: Tmax (Median)): 4 h
AUC(0-t) (150 mg, Compound I, 150 mg BID of Form B, Cohort 7, Day 29, read-out: AUClast (Mean)): 455 ng·h/mL
AUC(0-t) (150 mg, Compound I, 150 mg BID of Form B, Cohort 7, Day 29, read-out: AUClast (Median)): 334 ng·h/mL
Cmax (150 mg, Compound I, 150 mg BID of Form B, Cohort 7, Day 29, read-out: Cmax (Mean)): 50.2 ng/mL
Cmax (150 mg, Compound I, 150 mg BID of Form B, Cohort 7, Day 29, read-out: Cmax (Median)): 36.9 ng/mL
Tmax (150 mg, Compound I, 150 mg BID of Form B, Cohort 7, Day 29, read-out: Tmax (Mean)): 4 h
Tmax (150 mg, Compound I, 150 mg BID of Form B, Cohort 7, Day 29, read-out: Tmax (Median)): 4 h
AUC(0-t) (200 mg, Cohort 1, 200 mg QD of Form B, Day 1, read-out: AUClast, Mean): 215 ng·h/mL
AUC(0-t) (200 mg, Cohort 1, 200 mg QD of Form B, Day 1, read-out: AUClast, Median): 232 ng·h/mL
Cmax (200 mg, Cohort 1, 200 mg QD of Form B, Day 1, read-out: Cmax, Mean): 25.5 ng/mL
Cmax (200 mg, Cohort 1, 200 mg QD of Form B, Day 1, read-out: Cmax, Median): 27 ng/mL
Tmax (200 mg, Cohort 1, 200 mg QD of Form B, Day 1, read-out: Tmax, Mean): 4.17 h
Tmax (200 mg, Cohort 1, 200 mg QD of Form B, Day 1, read-out: Tmax, Median): 4 h
AUC(0-t) (200 mg, Compound I, 200 mg BID of Form B, Cohort 7, Day 1, read-out: AUClast (Mean)): 118 ng·h/mL
AUC(0-t) (200 mg, Compound I, 200 mg BID of Form B, Cohort 7, Day 1, read-out: AUClast (Median)): 125 ng·h/mL
Cmax (200 mg, Compound I, 200 mg BID of Form B, Cohort 7, Day 1, read-out: Cmax (Mean)): 17.3 ng/mL
Cmax (200 mg, Compound I, 200 mg BID of Form B, Cohort 7, Day 1, read-out: Cmax (Median)): 17.6 ng/mL
Tmax (200 mg, Compound I, 200 mg BID of Form B, Cohort 7, Day 1, read-out: Tmax (Mean)): 5 h
Tmax (200 mg, Compound I, 200 mg BID of Form B, Cohort 7, Day 1, read-out: Tmax (Median)): 5 h
AUC(0-t) (200 mg, Compound I, 200 mg BID of Form B, Cohort 8, Day 29, read-out: AUClast (Mean)): 197 ng·h/mL
AUC(0-t) (200 mg, Compound I, 200 mg BID of Form B, Cohort 8, Day 29, read-out: AUClast (Median)): 205 ng·h/mL
Cmax (200 mg, Compound I, 200 mg BID of Form B, Cohort 8, Day 29, read-out: Cmax (Mean)): 26.3 ng/mL
Cmax (200 mg, Compound I, 200 mg BID of Form B, Cohort 8, Day 29, read-out: Cmax (Median)): 30.5 ng/mL
Tmax (200 mg, Compound I, 200 mg BID of Form B, Cohort 8, Day 29, read-out: Tmax (Mean)): 6.67 h
Tmax (200 mg, Compound I, 200 mg BID of Form B, Cohort 8, Day 29, read-out: Tmax (Median)): 4 h
AUC(0-t) (200 mg, Compound I, 200 mg QD of Form B, Cohort 1, Day 29, read-out: AUClast (Mean)): 229 ng·h/mL
AUC(0-t) (200 mg, Compound I, 200 mg QD of Form B, Cohort 1, Day 29, read-out: AUClast (Median)): 227 ng·h/mL
Cmax (200 mg, Compound I, 200 mg QD of Form B, Cohort 1, Day 29, read-out: Cmax (Mean)): 20.4 ng/mL
Cmax (200 mg, Compound I, 200 mg QD of Form B, Cohort 1, Day 29, read-out: Cmax (Median)): 21.3 ng/mL
Tmax (200 mg, Compound I, 200 mg QD of Form B, Cohort 1, Day 29, read-out: Tmax (Mean)): 4.2 h
Tmax (200 mg, Compound I, 200 mg QD of Form B, Cohort 1, Day 29, read-out: Tmax (Median)): 4 h
AUC(0-t) (300 mg, Cohort 2, 300 mg QD of Form B, Day 1, upon exclusion of data for patient that vomited immediately after dosing, read-out: AUClast, Mean): 567 ng·h/mL
